Test results reported in US7598382B2, “Aryl substituted imidazoquinolines” (Coley Pharmaceutical Group, Inc., priority 2002, dated 2009).

In the case of `CC(C)(O)Cn1cnc2c(N)nc3ccc(Cc4ccccc4)cc3c21` [Example 434, 1-(4-Amino-8-benzyl-1H-imidazo[4,5-c]quinolin-1-yl)-2-methylpropan-2-ol], the melting point is reported as 256 to 257 °C.

Compound `CCCc1nc2c(N)nc3ccc(Cc4ccccc4)cc3c2n1CC(C)(C)O` [Example 435, 1-(4-Amino-8-benzyl-2-propyl-1H-imidazo[4,5-c]quinolin-1-yl)-2-methylpropan-2-ol] has a melting point of 191 to 192 °C.

With `CCOCc1nc2c(N)nc3ccc(Cc4ccccc4)cc3c2n1CC(C)(C)O` [Example 436, 1-(4-Amino-8-benzyl-2-ethoxymethyl-1H-imidazo[4,5-c]quinolin-1-yl)-2-methylpropan-2-ol] the melting point was 209 to 210 °C.

Work on `CCOCc1nc2c(N)nc3cc(-c4cccnc4)ccc3c2n1CC1CCCCC1` [Example 438, 1-Cyclohexylmethyl-2-ethoxymethyl-7-(pyridin-3-yl)-1H-imidazo[4,5-c]quinolin-4-amine] yielded a melting point of 146 to 148 °C.

Compound `CCOCc1nc2c(N)nc3cc(-c4cncc(CO)c4)ccc3c2n1CC1CCCCC1` [Example 439, 1-Cyclohexylmethyl-2-ethoxymethyl-7-(5-hydroxymethylpyridin-3-yl)-1H-imidazo[4,5-c]quinolin-4-amine] has a melting point of 240 to 241 °C.

In the case of `CCCc1nc2c(N)nc3cc(/C=C/c4cccc(S(N)(=O)=O)c4)ccc3c2n1CC(C)C` [Example 440, (E)-3-{2-[4-Amino-1-(2-methylpropyl)-2-propyl-1H-imidazo[4,5-c]quinolin-7-yl]vinyl}benzenesulfonamide], the melting point is reported as > 250 °C.

Compound `CCCc1nc2c(N)nc3cc(/C=C/c4ccc5sc(C)nc5c4)ccc3c2n1CC(C)C` [Example 441, (E)-7-[2-(2-Methylbenzothiazol-5-yl)vinyl]-1-(2-methylpropyl)-2-propyl-1H-imidazo[4,5-c]quinolin-4-amine] has a melting point of 210 to 212 °C.

For `CCCc1nc2c(N)nc3cc(/C=C/c4ccc(C)s4)ccc3c2n1CC(C)C` [Example 442, (E)-1-(2-Methylpropyl)-7-[2-(5-methylthiophen-2-yl)vinyl]-2-propyl-1H-imidazo[4,5-c]quinolin-4-amine], the melting point was 182 to 185 °C.

For `CCCc1nc2c(N)nc3cc(/C=C/c4cccc(OC)c4)ccc3c2n1CC(C)C` [Example 443, (E)-7-[2-(3-Methoxyphenyl)vinyl]-1-(2-methylpropyl)-2-propyl-1H-imidazo[4,5-c]quinolin-4-amine], the melting point was 181 to 183 °C.

In the case of `CCCc1nc2c(N)nc3cc(/C=C/c4ccc(OC)cc4)ccc3c2n1CC(C)C` [Example 444, (E)-7-[2-(4-Methoxyphenyl)vinyl]-1-(2-methylpropyl)-2-propyl-1H-imidazo[4,5-c]quinolin-4-amine], the melting point is reported as 201 to 202 °C.

Work on `CCCc1nc2c(N)nc3cc(/C=C/c4ccccc4OC)ccc3c2n1CC(C)C` [Example 445, (E)-7-[2-(2-Methoxyphenyl)vinyl]-1-(2-methylpropyl)-2-propyl-1H-imidazo[4,5-c]quinolin-4-amine] yielded a melting point of 214 to 216 °C.

With `CCCc1nc2c(N)nc3cc(CCc4cccc(S(N)(=O)=O)c4)ccc3c2n1CC(C)C` [Example 456, 3-{2-[4-Amino-1-(2-methylpropyl)-2-propyl-1H-imidazo[4,5-c]quinolin-7-yl]ethyl}benzenesulfonamide] the melting point was 250 to 251 °C.

In the case of `CCCc1nc2c(N)nc3cc(CCc4cccc(OC)c4)ccc3c2n1CC(C)C` [Example 458, 7-[2-(3-Methoxyphenyl)ethyl]-1-(2-methylpropyl)-2-propyl-1H-imidazo[4,5-c]quinolin-4-amine], the melting point is reported as 155 to 157 °C.

In the case of `CCCc1nc2c(N)nc3cc(CCc4ccc(C)s4)ccc3c2n1CC(C)C` [Example 461, 1-(2-Methylpropyl)-7-[2-(5-methylthiophen-2-yl)ethyl]-2-propyl-1H-imidazo[4,5-c]quinolin-4-amine], the melting point is reported as 150 to 152 °C.

Work on `CCOCc1nc2c(N)nc3cc(-n4cccn4)ccc3c2n1CCCOC` [Example 472, 2-Ethloxymethyl-1-(3-methoxypropyl)-7-(pyrazol-1-yl)-1H-imidazo[4,5-c]quinolin-4-amine] yielded a melting point of 159 to 160 °C.

In the case of `CCOCc1nc2c(N)nc3cc(-n4ccnc4)ccc3c2n1CCCOC` [Example 473, 2-Ethoxymethyl-7-(imidazol-1-yl)-1-(3-methoxypropyl)-1H-imidazo[4,5-c]quinolin-4-amine], the melting point is reported as 167.5 to 169 °C.

For `CCOCc1nc2c(N)nc3cc(-c4ccc(-c5ccc6c(c5)nc(N)c5nc(COCC)n(CC(C)(C)O)c56)cc4)ccc3c2n1CC(C)(C)O` [Example 474, 1-(4-Amino-7-{4-[4-amino-2-ethoxymethyl-1-(2-hydroxy-2-methylpropyl)-1H-imidazo[4,5-c]quinolin-7-yl]phenyl}-2-ethoxymethyl-1H-imidazo[4,5-c]quinolin-1-yl)-2-methylpropan-2-ol], the melting point was 325 to 328 °C.

`CCCCCCC1(CCCCCC)c2cc(-c3ccc4c(c3)nc(N)c3nc(COCC)n(CC(C)(C)O)c34)ccc2-c2ccc(-c3ccc4c(c3)nc(N)c3nc(COCC)n(CC(C)(C)O)c34)cc21` [Example 475, 1-(4-Amino-7-{7-[4-amino-2-ethoxymethyl-1-(2-hydroxy-2-methylpropyl)-1H-imidazo[4,5-c]quinolin-7-yl]-9,9-dihexyl-9H-fluoren-2-yl}-2-ethoxymethyl-1H-imidazo[4,5-c]quinolin-1-yl)-2-methylpropan-2-ol] gave a melting point of 261 to 265 °C.

For `CCCCCCC1(CCCCCC)c2cc(-c3ccc4c(c3)nc(N)c3nc(CCOC)n(CCCN5CCCC5=O)c34)ccc2-c2ccc(-c3ccc4c(c3)nc(N)c3nc(CCOC)n(CCCN5CCCC5=O)c34)cc21` [Example 476, 1-[4-Amino-7-(7-{4-amino-2-(2-methoxyethyl)-1-[3-(pyrrolidin-2-one)propyl]-1H-imidazo[[4,5-c]quinolin-7-yl}-9,9-dihexyl-9H-fluoren-2-yl)-2-(2-methoxyethyl)-1H-imidazo[4,5-c]quinolin-1-yl]propyl}pyrrolidin-2-one], the melting point was 251 to 254 °C.

In the case of `CCOCc1nc2c(N)nc3cc(-c4cccc(CS(N)(=O)=O)c4)ccc3c2n1CC1CCOCC1` [Example 480, {3-[4-Amino-2-ethoxymethyl-1-(tetrahydropyran-4-ylmethyl)-1H-imidazo[4,5-c]quinolin-7-yl]phenyl}methanesulfonamide], the melting point is reported as 254 to 255 °C.

For `CC(C)Cn1cnc2c(N)nc3cccc(-c4ccccc4)c3c21` [Example 482, 1-(2-Methylpropyl)-9-phenyl-1H-imidazo[4,5-c]quinolin-4-amine], the melting point was 263 to 265 °C.

Compound `CCCOc1ccc(-c2cccc3nc(N)c4ncn(CC(C)C)c4c23)cc1` [Example 483, 1-(2-Methylpropyl)-9-(4-propoxyphenyl)-1H-imidazo[4,5-c]quinolin-4-amine] has a melting point of 181 to 182 °C.

With `CCOCc1nc2c(N)nc3c(-c4cccc(CS(N)(=O)=O)c4)cccc3c2n1CC(C)(C)O` [Example 484, {3-[4-Amino-2-ethoxymethyl-1-(2-hydroxy-2-methylpropyl)-1H-imidazo[4,5-c]quinolin-6-yl]phenyl}methanesulfonamide] the melting point was 234 to 235 °C.

Work on `CCOCc1nc2c(N)nc3c(-c4cccnc4)cccc3c2n1CC(C)(C)O` [Example 485, 1-[4-Amino-2-ethoxymethyl-6-(pyridin-3-yl)-1H-imidazo[4,5-c]quinolin-1-yl]-2-methylpropan-2-ol] yielded a melting point of 199 to 201 °C.
